Results as given in paper PMC7655065, “Effect of 3-subsitution of quinolinehydroxamic acids on selectivity of histone deacetylase isoforms” (Journal of Enzyme Inhibition and Medicinal Chemistry, 2020).

What was measured:
[1] = system: HCT116 cells; assay: Sulforhodamine B antiproliferative assay, HCT116; format: cell-based; details: Homo sapiens, HCT-116, SRB, 48 h, values > 10 μM estimated from best curve fitting
Protocol: (§1) All human cancer cells were maintained in RPMI 1640 medium supplemented with 10% FBS and penicillin (100 units/ml)/streptomycin (100 µg/ml)/amphotericin B (0.25 µg/ml). All cells were maintained in humidified air containing 5% CO2 at 37 °C and cultured every 2–3 days. […]
(§2) Cells were seeded at the density of 5000 cells/well into 96-plate overnight. Basal cells were fixed with 10% trichloroacetic acid (TCA) to represent the cell population at the time of compound addition (T0). After additional incubation of DMSO (C) or different doses of test compounds (Tx) for 48 h, cells were fixed with 10% TCA and stained with SRB at 0.4% (w/v) in 1% AcOH. Unbound SRB was washed out using 1% AcOH and SRB bound cells were solubilised with 10 mM Trizma base. The absorbance was read at a wavelength of 515 nm. The 50% growth inhibition (GI50) was calculated by 100 − [(Tx – T0)/(C – T0)] × 100.

[2] = system: A549 cells; assay: Sulforhodamine B antiproliferative assay, A549; format: cell-based; details: Homo sapiens; A549 cells, SRB, 48 h; values > 10 μM estimated from best curve fitting; read-out: Antiproliferative activity IC50, A549
Protocol: as §1, §2

SMILES | IC50 [1] | IC50 [2]
COc1ccccc1-c1cnc2c(NCc3ccc(C(=O)NO)cc3)cccc2c1 [Compound 19, N-Hydroxy-4-(((3–(2-methoxyphenyl)quinolin-8-yl)amino)methyl)benzamide] | 7.19 ± 0.77 µM | > 10 µM
COc1ccc(-c2cnc3c(NCc4ccc(C(=O)NO)cc4)cccc3c2)cc1 [Compound 20, N-Hydroxy-4-(((3–(4-methoxyphenyl)quinolin-8-yl)amino)methyl)benzamide] | > 10 µM | 9.1 ± 0.3 µM
N#Cc1ccccc1-c1cnc2c(NCc3ccc(C(=O)NO)cc3)cccc2c1 [Compound 21, 4-(((3–(2-Cyanophenyl)quinolin-8-yl)amino)methyl)-N-hydroxybenzamide amide] | 6 ± 1.56 µM | 8.65 ± 2.35 µM
N#Cc1ccc(-c2cnc3c(NCc4ccc(C(=O)NO)cc4)cccc3c2)cc1 [Compound 23, 4-(((3–(4-Cyanophenyl)quinolin-8-yl)amino)methyl)-N-hydroxybenzamide] | 3.5 ± 0.32 µM | 3.64 ± 0.66 µM
O=C(NO)c1ccc(CNc2cccc3cc(-c4cccc([N+](=O)[O-])c4)cnc23)cc1 [Compound 24, N-Hydroxy-4-(((3–(3-nitrophenyl)quinolin-8-yl)amino)methyl)benzamide] | 2.88 ± 0.21 µM | 4.05 ± 0.42 µM

Other lines, results leading:

IC50 [1] | IC50 [2] | SMILES
> 10 µM | > 10 µM | O=C(NO)c1ccc(CNc2cccc3cc(Br)cnc23)cc1 [Compound 15, 4-[(3-Bromo-quinolin-8-ylamino)-methyl]-N-hydroxy-benzamide]
4.79 ± 0.47 µM | 3.41 ± 0.9 µM | O=C(NO)c1ccc(CNc2cccc3cc(I)cnc23)cc1 [Compound 16, N-Hydroxy-4-[(3-iodo-quinolin-8-ylamino)-methyl]-benzamide]
